This passage reports change in vivo and minimal effective concentration results from patent US11358972B2, “Pentacyclic heterocycles” (Eisai R&D Management Co., Ltd., priority 2019, dated 2022).

In assay [1] the test system is Choline Acetyltransferase (ChAT) mRNA. Kind of assay: Measurement of choline acetyltransferase (ChAT) mRNA expression levels in the rat septal area. Type of assay: in vivo. Particulars: po, SD male rats, medial septum, 24 hours after administration, read-out: Amount (%) increased from the amount of ChAT mRNA expression levels in the vehicle administration group; for change in vivo at 3 mg/kg: 3 mg/kg orally; for change in vivo at 1 mg/kg: 1 mg/kg orally. The method, then:
Measurement of Choline Acetyltransferase (ChAT) mRNA Expression Levels in the Rat Septal Area (1) Compound Administration
In this study, Sprague-Dawley male rats (Charles River Laboratories Japan, Inc.) with a body weight of about 250 to 350 g were used. The test compound was dissolved in 0.01 mol/L hydrochloric acid, and orally administered.
At 24 hours after the administration of the compound, the whole brain tissue was collected under pentobarbital anesthesia. The medial septum was isolated from whole brain on ice and frozen with liquid nitrogen, and then stored at −80° C.
(3) Measurement of ChAT mRNA Expression Levels
For RNA purification, RNeasy™ Plus Mini Kit (#74136: QIAGEN) was used in this study. RNA purification was performed by the method described in the kit After RNA purification, the total RNA concentration was measured by using QIAxpert Instrument (QIAGEN). cDNA was synthesized using SuperScript™ VILO™ cDNA Synthesis Kit (#11754: Thermo Fisher Scientific). The synthesis of cDNA was performed by the method described in the kit. The synthesized cDNA was diluted 4 times with RNase free water, and the diluted cDNA solution was used as a sample. Taqman™ Universal PCR Master Mix (#4304437: Thermo Fisher Scientific), Taqman™ Gene Expression Assays, INVENTORIED (#4331182: Thermo Fisher Scientific), RNase free water, and the cDNA solution were mixed in amounts of 10 μL, 1 μL, 4 μL, and 5 μL, respectively, and the resulting mixture was used as a measurement sample solution. Quantitative polymerase chain reaction (qPCR) was conducted using ABI PRISM™ 7900HT (Thermo Fisher Scientific) by a fluorescence probe method. Analysis was performed by SDS 2.4 (Thermo Fisher Scientific). The results were calculated by the percentage of the amount of ChAT mRNA expression levels in the compound administration group increased from the amount of ChAT mRNA expression levels in the vehicle administration group.

Assay [2] deals with Rat primary septal neuron culture. The assay is described as follows: Measurement of acetylcholine (ACh) release in the rat primary septal neuron culture system. Type of assay: cell-based. The following applies: 24 h, rat primary septal neurons, with NGF, ACh release measured by HPLC one day after compound addition, read-out: Concentration (μM) showing a 20% or more increase from the amount of ACh in the control group. The source says: Measurement of Acetylcholine (ACh) Release in the Rat Primary Septal Neuron Culture System
(1) Rat Primary Septal Neuron Culture
The septal area was isolated from Sprague-Dawley (SD) rats (Charles River Laboratories Japan, Inc.) at a fetal age of 18 days, and cultured. Specifically, fetuses were removed from pregnant rats under isoflurane anesthesia. The brain was extracted from each fetus, and immersed in ice-cooled L-15 medium (11415-064, Thermo Fisher Scientific). The septal area was dissected from the extracted brain under a stereoscopic microscope. The dissected septal area was treated in 0.25% trypsin (15050-065, Thermo Fisher Scientific) and 0.01% DNase (D5025-150KU, Sigma) at 37° C. for 30 minutes, thereby dispersing the cells. In this case, the enzyme reaction was terminated by adding inactivated horse serum (26050-088, Thermo Fisher Scientific). The enzyme-treated solution was centrifuged at 1000 rpm for 3 minutes, and the supernatant was removed. A medium in an amount of 10 mL was added to the obtained cell mass. The medium used was Dulbecco's Modified Eagle's Medium (044-29765, WAKO) supplemented with N2 supplement (17502-048, Thermo Fisher Scientific), 1 mM sodium pyruvate (11360-070, Thermo Fisher Scientific), and Penicillin-Streptomycin (15140-1221, Thermo Fisher Scientific). The cells of the cell mass to which the medium was added were redispersed by gentle pipetting, and then centrifuged again at 1000 rpm for 3 minutes, and the supernatant was removed. The medium in an amount of 10 mL was added to the obtained cell mass, and the cell dispersion was filtered through a 40-μm nylon mesh (Cell Strainer) to remove the cell mass, thereby obtaining a neuronal cell suspension. The neuronal cell suspension was diluted with the medium, and 10% inactivated bovine serum (26140-079, Thermo Fisher Scientific) and 10% inactivated horse serum were added. Thereafter, 100 μL/well of the suspension was seeded in a 96-well plate (354461, CORNING) pre-coated with poly-D-lysine so that the initial culture density was 1.2×10^5 cells/cm^2. After the seeded cells were cultured under 5% CO2-95% air in a 37° C. incubator for 2 days, the entire medium was replaced with 120 μL of fresh medium, and the cells were subsequently cultured for 5 days.
On the 7th day of culture, compounds were added in the following manner. A solution of the test compound in DMSO was diluted with the medium so that the concentration was 10 times higher than the final concentration. Nerve Growth Factor (450-01, PEPRO TECH, INC.) was prepared at […]. These two solutions were added each in an amount of 15 μL/well, and the mixture was mixed well. The final DMSO concentration was 0.1% or less. Moreover, only DMSO and NGF were added to the control group.
(3) ACh Release Measurement
One day after the compound addition, an amount of ACh release was measured by HPLC in the following manner. A warmed buffer was added at 100 μL/well to the well after the medium was eliminated, and the buffer was immediately removed. Thereafter, a buffer to which 10 μm choline, 10 μm physostigmine, and 6 mM KCl were added was added at 120 μL/well. The buffer was prepared by adding 125 mM NaCl, 25 mM 4-(2-hydroxyethyl)-1-piperazineethanesulfonic acid, 1.2 mM KH2PO4, 1.2 mM MgSO4, 2.2 mM CaCl2 (2H2O), and 10 mM glucose to sterilized water, and the final pH of the solution was set to 7.4. After the 96-well plate to which the buffer was added was incubated under 5% CO2-95% air in a 37° C. incubator for 40 minutes, 80 μL of buffer was collected. An internal standard solution IPHC (5×10^−7 M) was added in an amount of 6 μL to the collected buffer, and the buffer was transferred to a tube for HPLC measurement and subjected to HPLC measurement. […]

Take `CN1Cc2nc3c(oc4ccccc43)c(=O)n2[C@@H]2CN(CCF)C[C@H]2C1=O` (relative stereo) [Example 17, (−)-(3a,14a-trans)-2-(2-fluoroethyl)-5-methyl-2,3,3a,5,6,14a-hexahydro-1H-benzofuro[3′,2′:4,5]pyrimido[1,2-a]pyrrolo[3,4-f][1,4]diazepine-4,13-dione]: the change in vivo at 3 mg/kg in assay [1] came out at 44.6%. Besides, in assay [2], the minimal effective concentration amounted to 0.03 µM.
As to `CN1CCc2c(sc3nc4n(c(=O)c23)C(C)(C)CC(=O)N2CCCC42)C1` (single isomer, unassigned; (+)) [Example 2, (+)-7,7,12-trimethyl-1,2,3,6,7,10,11,12,13,15b-decahydropyrido[4″,3″:4′,5′]thieno[2′,3′:4,5]pyrimido[1,2-a]pyrrolo[2,1-c][1,4]diazepine-5,9-dione], the change in vivo at 3 mg/kg in assay [1] is 53.6%. Further, the minimal effective concentration in assay [2] is 0.03 µM.
Consider `COCCN1CCc2c(sc3nc4n(c(=O)c23)C(C)(C)CC(=O)N2CCCC42)C1` (single isomer, unassigned; (-)) [Example 13, (−)-12-(2-methoxyethyl)-7,7-dimethyl-1,2,3,6,7,10,11,12,13,15b-decahydro-5H,9H-pyrido[4″,3″:4′,5′]thieno[2′3′:4,5]pyrimido[1,2-a]pyrrolo[2,1-c][1,4]diazepine-5,9-dione], for which the change in vivo at 1 mg/kg in assay [1] worked out at 59.7%. Also, the minimal effective concentration in assay [2] came to 0.03 µM.
For the compound `CN1Cc2nc3c(oc4ccccc43)c(=O)n2[C@@H]2CCC[C@@H]2C1=O` [Example 1, (3aS,14aR)-5-methyl-3,3a,5,6-tetrahydro-1H-benzofuro[3′,2′:4,5]pyrimido[1,2-a]cyclopenta[f][1,4]diazepine-4,13(2H,14aH)-dione], in assay [1] (10 mg/kg orally), the change in vivo at 10 mg/kg was found to be 76%. In assay [2], the minimal effective concentration was determined as 0.03 µM.
`CN1Cc2nc3c(oc4cc(F)ccc43)c(=O)n2[C@@H]2CCC[C@@H]2C1=O` [Example 3, (3aS,14aR)-10-fluoro-5-methyl-3,3a,5,6-tetrahydro-1H-benzofuro[3′,2′:4,5]pyrimido[1,2-a]cyclopenta[f][1,4]diazepine-4,13(2H,14aH)-dione]: in assay [1], the change in vivo at 1 mg/kg was 53.7%. Moreover, the minimal effective concentration in assay [2] was found to be 0.03 µM.
In the case of `Cc1cc(C)c2c(n1)oc1c(=O)n3c(nc12)CN(C)C(=O)[C@H]1CCC[C@H]13` [Example 4, (3aS,14aR)-5,8,10-trimethyl-3,3a,5,6-tetrahydro-1H-cyclopenta[f]pyrido[3″,2″:4′,5′]furo[3′,2′:4,5]pyrimido[1,2-a][1,4]diazepine-4,13(2H,14aH)-dione], the change in vivo at 1 mg/kg in assay [1] stood at 51.5%. For the same compound, the minimal effective concentration in assay [2] amounted to 0.1 µM.
For `CN1Cc2nc3c(oc4cc(F)ccc43)c(=O)n2[C@@H]2CCC[C@H]2C1=O` [Example 5, (3aR,14aR)-10-fluoro-5-methyl-3,3a,5,6-tetrahydro-1H-benzofuro[3′,2′:4,5]pyrimido[1,2-a]cyclopenta[f][1,4]diazepine-4,13(2H,14aH)-dione], in that order: 54.1% and 0.03 µM.
Consider `CN1Cc2nc3c(oc4cc(C(F)(F)F)ccc43)c(=O)n2[C@@H]2CCC[C@H]2C1=O` [Example 6], for which the change in vivo at 0.3 mg/kg in assay [1] (0.3 mg/kg orally) worked out at 67.7%. Moreover, in assay [2], the minimal effective concentration is 0.03 µM.
For the compound `CN1Cc2nc3sc4c(c3c(=O)n2[C@@H]2CCC[C@@H]2C1=O)CCN(CC(F)F)C4` [Example 7, (3aS,14aR)-10-(2,2-difluoroethyl)-5-methyl-2,3,3a,5,6,9,10,11,12,14a-decahydro-1H-cyclopenta[f]pyrido[4″,3″:4′,5′]thieno[2′,3′:4,5]pyrimido[1,2-a][1,4]diazepine-4,13-dione], the change in vivo at 3 mg/kg in assay [1] amounted to 76.6%. The minimal effective concentration in assay [2] came to 0.3 µM.
For the compound `COCCN1CCc2c(sc3nc4n(c(=O)c23)[C@@H]2CCC[C@@H]2C(=O)N(C)C4)C1` [Example 8], the change in vivo at 3 mg/kg in assay [1] turned out to be 71.8%. Besides, in assay [2], the minimal effective concentration was determined as 0.03 µM.
The corresponding values for `CN1Cc2nc3c(oc4cc(C(F)F)ccc43)c(=O)n2[C@@H]2CCC[C@@H]2C1=O` [Example 9] are 112% and 0.03 µM.
On to `CN1CCc2c(sc3nc4n(c(=O)c23)C(C)(C)CC(=O)N2C[C@H](F)C[C@H]42)C1` [Example 10, (2R,15bR)-2-fluoro-7,7,12-trimethyl-1,2,3,6,7,10,11,12,13,15b-decahydro-5H,9H-pyrido[4″,3″:4′,5′]thieno[2′3′:4,5]pyrimido[1,2-a]pyrrolo[2,1-c][1,4]diazepine-5,9-dione], for which, in assay [1], the change in vivo at 1 mg/kg amounted to 50.6%. Moreover, the minimal effective concentration in assay [2] turned out to be 0.03 µM.
`CN1CCc2c(sc3nc4n(c(=O)c23)[C@H]2COC[C@H]2C(=O)N(C)C4)C1` [Example 11, (+)-(3a,14a-cis)-5,10-dimethyl-1,3,3a,5,6,9,10,11,12,14a-decahydrofuro[3,4-f]pyrido[4″,3″:4′,5′]thieno[2′,3′:4,5]pyrimido[1,2-a][1,4]diazepine-4,13-dione]: the change in vivo at 1 mg/kg in assay [1] came to 54.7%. Further, the minimal effective concentration in assay [2] stood at 0.03 µM.
Consider `CN1Cc2nc3c(oc4cc(C(F)(F)F)ccc43)c(=O)n2[C@H]2CCC[C@@H]2C1=O` [Example 12, (3aS,14aS)-5-methyl-10-(trifluoromethyl)-2,3,3a,5,6,14a-hexahydro-1H-benzofuro[3′,2′:4,5]pyrimido[1,2-a]cyclopenta[f][1,4]diazepine-4,13-dione], for which, in assay [1], the change in vivo at 1 mg/kg is 44.7%. For the same compound, in assay [2], the minimal effective concentration is 0.03 µM.
